Test [1] has as its system non-small cell lung carcinoma (A549) cells. Put plainly: MTT proliferation assay, NSCLC. In kind it is cell-based, Human. The following applies: Homo sapiens, Tumor Cell NSCLC (A549), 120 hours, read-out: Anti-proliferative IC-50. The procedure: (§1) Cells were maintained in various media as follows: A549, LoVo and PC-3 (Ham's F12K medium with 2 mM L-glutamine and 1.5 g/L sodium bicarbonate), MIA PaCa-2 (Dulbecco's modified Eagle's medium with 4 mM L-glutamine and 4.5 g/L glucose), U87-MG (MEM+Earle's BSS). Medium for each cell line was supplemented with 10% FBS and […] Penecillin/Streptomycin. All cells were grown in incubators set at 37° C., 5% CO2. Thiazolyl Blue Tetrazolium Bromide (MTT) based proliferation assays were performed to assess the anti-proliferative activities of the compounds on these cells. Cells were seeded in 96 well plates at a density of 750 cells/well 24 hours prior to compound treatment. The cells were incubated with varying concentrations of compounds for 120 hours. […] Drug treatment was performed in 5 replicate wells. Background absorbance was established by wells containing medium but no cells. Vehicle (DMSO) only was used as control. MTT (Sigma-Aldrich, St. Louis, Mo.) was added to each well at a final concentration of 0.5 mg/ml. Following a 2 hour incubation at 37° C., medium in the wells was replaced with 0.15 ml DMSO. The plates were agitated for 15 min using a microtiter plate shaker.

For test [2], the system named is pancreatic carcinoma (MIA PaCa-2) cells. Briefly: MTT proliferation assay, pancreatic. In kind it is cell-based, Human. To be noted: Homo sapiens, Tumor Cell Pancreatic (MIA PaCa-2), 120 hours, read-out: Anti-proliferative IC-50. The protocol:
as §1

Test [3] concerns prostate adenocarcinoma (PC-3) cells. Briefly: MTT proliferation assay, prostate. In kind it is cell-based, Human. To be noted: Homo sapiens; Tumor Cell Prostate (PC-3); MTT, 120 hours; read-out: Anti-proliferative IC-50. The protocol:
We used these methods to mine the known pharmacopeia for drugs with previously-unsuspected activity against cancer-related pathways. […] Hits from our cell-based screens were tested for antiproliferative activity in up to 5 different human tumor cell lines, as follows. First, drugs with significant activity in the cellular screen(s) were tested for their ability to block proliferation of a human tumor cell line (PC-3) at an initial concentration of 10 micromolar. For drugs with antiproliferative activity in PC-3 cells, dose-response curves to determine the IC50 for antiproliferative activity and additional tumor cell lines were tested to determine the breadth of activity. Methods for assessing the antiproliferative activity of the cell-based drug ‘hits’ are described below.
as §1

The next test has as its system Wee1:Cdc2. Briefly: Protein-fragment complementation assay Wee1:Cdc2. In kind it is cell-based, human. The following applies: hit in Wee1/Cdc2 assay; drugs screened at 10 micromolar. From the text: To construct dynamic assays for protein-protein complexes, we used a protein-fragment complementation assay strategy (PCAs) in intact human cells. (A variety of other suitable assays, and reporter options, are described in detail below.) The principle of PCA is that complementary polypeptide fragments (F[1] and F[2]) of a reporter protein or enzyme will fold into an active form only if fused to two proteins which interact and bring the complementary fragments of the reporter protein into proximity. Reconstitution of the fragments of the reporter protein generates a fluorescent signal that can be quantified in intact cells, and the amount of the signal is proportional to the amount of the protein-protein complex used in constructing the assay. Given a suitable reporter type, the subcellular location of the complex can also be measured.
Reporter fragments for PCA were generated by oligonucleotide synthesis (Blue Heron Biotechnology, Bothell, Wash.), starting with the sequence of yellow fluorescent protein (YFP). First, oligonucleotides coding for polypeptide fragments YFP[1]and YFP[2] […] Next, PCR mutagenesis was used to generate the mutant fragments IFP[1] and IFP[2]. The IFP[1] fragment corresponds to YFP[1]-(F46L, F64L, M153T) and the IFP[2] fragment corresponds to YFP[2]-(V163A, S175G). […]

The subject of test [4] is glioblastoma (U-87 MG) cells. Put plainly: MTT proliferation assay, glioblastoma. To be noted: Homo sapiens, Tumor Cell Glioblastoma (U-87 MG), 120 hours, read-out: Anti-proliferative IC-50. In kind it is cell-based. The procedure:
as §1

Test [5] has as its system colon adenocarcinoma (LoVo) cells. Briefly: MTT proliferation assay, colon. In kind it is cell-based, Human. To be noted: Homo sapiens, Tumor Cell Colon (LoVo), 120 hours, read-out: Anti-proliferative IC-50. The procedure: as §1

The record followed here is patent US20060094059A1, “Methods for identifying new drug leads and new therapeutic uses for known drugs” (Odyssey Thera, Inc., priority 2004, published 2006).

Each structure is given as a SMILES string. pIC50: −log10 of the molar value.

Consider `CO[C@H]1[C@H](O)[C@H](O[C@H]2CC[C@@]3(C=O)[C@H](CC[C@@H]4[C@@H]3CC[C@]3(C)[C@@H](C5=CC(=O)OC5)CC[C@]43O)C2)O[C@@H](C)[C@@H]1O` [Peruvoside], for which the pIC50 was 8.40 in test [1]; 8.52 in test [2]; 8.30 in test [3]; 8.70 in test [4]; 8.05 in test [5]. In addition, in the test on Wee1:Cdc2, the Assay activity result was “Wee1/Cdc2”.
